According to US10577351B2, “Therapeutic polymeric nanoparticles and methods of making and using same” (ASTRAZENECA AB, priority 2013, dated 2020):
Read-outs that look alike come from different tables or passages of the source.

What was measured:
[1] = Acid dissociation constant (pKa); assay type: physicochemical
bone marrow [2] = assay: Bone marrow hypocellularity, pathologist assessment of haematoxylin and eosin sections; assay type: in vivo, rat; conditions: 25 mg/kg IV; day 5 and 9; FIG. 13
Protocol: Female nude rats were bred at AstraZeneca, and put into study at a minimum weight of 150 g. Animals were inoculated in the flank with SW620 human tumour cells and dosing started when tumours had reached 0.4-0.9 cm^3. Compounds were dosed intravenously (IV) at 5 ml/kg with either control, AZD1152 or AZD1152 hqpa nanoparticle formulation B or E. AZD1152 was dosed in tris buffer vehicle (days 1-4 IV, each dose at 25 mg/kg) and AZD1152 hqpa nanoparticle formulation was dosed in physiological saline (dosed 25 mg/kg on each of days 1 and 3 IV). At the time points indicated animals were sacrificed and tumour, blood and femur/bone marrow samples taken. Effects of the treatments on the tumour and the bone marrow were scored by a pathologist assessment of haematoxylin and eosin stained sections derived from the femur.
(§1) Rats were injected IV with BIND Placebo (0 mg/kg), or AZD1152/AZD1152 hqpa Formulation E/F1/F2 at 25 mg/kg at the times indicated and sacrificed at the times indicated.
Bone marrows samples were extracted from each animal. Firstly samples of bone marrow were processed for pathological assessment. […] Bone marrow integrity was scored by the pathologist. […]
Bone marrow samples were extracted from each animal and processed for pathological assessment. […] Bone marrow integrity was scored by the pathologist. […]

bone marrow [3] = assay: Bone marrow cellularity by FACS (total nucleated cells); assay type: in vivo, rat; conditions: 25 mg/kg IV; FIG. 14
Protocol: as §1
Secondly bone marrow flushes taken to examine bone marrow cellularity by FACs. At termination bone marrow from each Femur was taken into 50% FBS and 50% PBS on ice. Cells were pelleted by centrifugation at 4° C. and re-suspended in PBS. Cells were pelleted again at 4° C. and re-suspended in PBS. 50 μl of LDS-751 (0.5 mg/ml in methanol) was added and cells vortexed. Finally the cells were filtered through a 50 micron filter into a FACS tube. Samples were analysed on a FACS Canto (Beckton Dickinson). A bone marrow hypocellularity is represented as a total of nucleated cells relative to untreated controls. The percentage cellularity of each bone marrow sample in each individual animal are shown. The dotted line represents the lowest percentage total nucleated cell value seen in animals receiving only vehicle (empty nanoparticle).

[4] = test system: SW620 human tumour xenograft; assay: SW620 anti-tumour study in male nude mouse; assay type: in vivo
Protocol: Male nude mice were bred at AstraZeneca. Animals were inoculated in the flank with SW620 human tumour cells, and then randomized onto study when tumours reached approximately 0.25 cm^3. AZD1152 was dosed in tris buffer vehicle at the concentration indicated. AZD1152 hqpa nanoparticle formulation E was dosed in physiological saline. Previous pre-clinical work and methodologies with AZD1152 are published in Wilkinson et al, Clinical Cancer Research 2007 (13) 3682. […] In this study AZD1152 was dosed on day 0-3 at 25 mg/kg (total 100 mg/kg). Formulation E was dosed at a variety of different schedules as described above.

[5] = test system: histone H3 phosphorylation on Ser10 (pHH3), surrogate marker of Aurora B kinase activity; assay: Tumour phospho-histone H3 (pHH3) biomarker in SW620 tumours by flow cytometry; assay type: in vivo, rat; conditions: 24 hrs post single dose 25 mg/kg IV
Protocol: This experiment compares the effect of Formulation E, F1 and F2 on a phospho-histone H3 phosphorylation (pHH3) in SW620 tumours. AZD1152 was included as a positive control. The activity was measured as an inhibition of histone H3 phosphorylation on Ser^10 (pHH3 as a sensitive, highly dynamic surrogate marker of Aurora B kinase activity). Average level of pHH3 positivity [%] was calculated for the cells in G2/M phase of the cell cycle for each treatment group at 24 hrs and 96 hrs post 1st dose and compared to the pHH3 level observed for the cells in G2/M cell cycle phase that were extracted from the tumours treated with BIND Placebo (referred here as 100%). Statistical significance was calculated using Student t-test assuming unequal variances (*p<0.05, **p<0.01, ***p<001, n.s. P>0.05). […]
The activity was measured as an inhibition of histone H3 phosphorylation on Ser10 (pHH3 as a sensitive, highly dynamic surrogate marker of Aurora B kinase activity). Average level of pHH3 positivity [%] was calculated for the cells in G2/M phase of the cell cycle for each treatment group at 24, 48, 72, 96 and 120 hrs post 1 dose and compared to the pHH3 level observed for the cells in G2/M cell cycle phase that were extracted from the tumours treated with BIND Placebo (referred here as 100%). […]

[6] = reported (SciFinder); cited from earlier work
[7] = reported (SciFinder); cited from earlier work; remark: listed apart in the source

Compound: CCN(CCO)CCCOc1ccc2c(Nc3cc(CC(=O)Nc4cccc(F)c4)[nH]n3)ncnc2c1 [AZD1152 hqpa, 2-(3-((7-(3-(ethyl(2-hydroxyethyl)amino)propoxy)quinazolin-4-yl)amino)-1H-pyrazol-5-yl)-N-(3-fluorophenyl)acetamide]
- pKa1 [1]: 5.7
- pKa2 [1]: 8.46

Compound: CCN(CCCOc1ccc2c(Nc3cc(CC(=O)Nc4cccc(F)c4)n[nH]3)ncnc2c1)CCOP(=O)(O)O [AZD1152, 2-(ethyl(3-((4-((5-(2-((3-fluorophenyl)amino)-2-oxoethyl)-1H-pyrazol-3-yl)amino)quinazolin-7-yl)oxy)propyl)amino)ethyl dihydrogen phosphate]
- bone marrow hypocellularity score (0-4) (bone marrow [2]): large impact on bone marrow
- bone marrow cellularity, total nucleated cells relative to untreated controls (bone marrow [3]): large impact on bone marrow
- efficacy of IV 25 mg/kg for 4 days (100 mg/kg total dose) ([4]; SW620 xenograft model in rat and mouse): maximal efficacy
- dose at which maximum activity was achieved ([4]; total dose equivalent, SW620): 100 mg/kg
- proportion of pHH3-positive cells within G2/M phase ([5]; FIG. 12): maximally suppressed
- proportion of pHH3-positive cells within G2/M phase ([5]; FIG. 15): maximally suppressed

Compound: O=C(O)c1cc2ccccc2c(Cc2c(O)c(C(=O)O)cc3ccccc23)c1O [pamoic acid, 4,4′-methylenebis[3-hydroxy-2-naphthoic acid]]
- pKa1 [6]: 2.67
- log P [7]: 6.169
